Laboratory results taken from ChEMBL document CHEMBL5543059, “Discovery of anti-inflammatory natural flavonoids: Diverse scaffolds and promising leads for drug discovery” (Eur J Med Chem, 2023).

Tested on: B16-F10
Experiment: Anti-inflammatory activity in LPS-stimulated mouse B16-F10 cells assessed as reduction in TNFalpha production measured for 12 hrs by ELISA method
Assay type: functional, cell-based
Conditions: B16-F10, 12 h

SMILES	IC50 [µM]
COc1ccc2oc(-c3ccc(OC)c(OC)c3)cc(=O)c2c1	1.3
COc1c(OC)c(O)c2c(=O)cc(-c3ccc(O)c(O)c3)oc2c1OC [SIDERITIFLAVONE]	5.6
COc1c(OC)c(O)c2c(=O)cc(-c3ccc(O)cc3)oc2c1OC [XANTHOMICROL]	3.8

Tested on: RAW264.7
Experiment: Anti-neuroinflammatory activity in mouse RAW264.7 cells assessed as inhibition of LPS-induced NO production pre-incubated for 1 hr followed by LPS stimulation and measured after 24 hrs by Griess reagent based assay
Assay type: functional, cell-based
Conditions: not given

SMILES	IC50 [µM]
C=C(C)c1oc2c(OC)c3oc(=O)c(-c4ccc(OC)cc4)c(O)c3c(OC)c2c1OC	0.89
COc1ccc(-c2c(OC)c3c(OC)c4cc(C(C)(C)O)oc4cc3oc2=O)cc1	0.89
COc1c(-c2ccc3c(c2)OCO3)c(=O)oc2cc3oc(C(C)(C)O)cc3c(OC)c12	0.89
COc1c2c(cc3oc(=O)c(-c4ccc(O)cc4)c(O)c13)OC(C)(C)C=C2	0.89
C=C(C)c1cc2c(OC)c3c(O)c(-c4ccc5c(c4)OCO5)c(=O)oc3c(OC)c2o1	0.89
C=C(C)c1cc2c(OC)c3c(O)c(-c4ccc(OC)cc4)c(=O)oc3c(OC)c2o1	0.89
COc1ccc(-c2c(O)c3c(OC)c4c(OC)c(C(C)C)oc4c(OC)c3oc2=O)cc1OC	0.89

Tested on: RAW264.7
Experiment: Antiinflammatory activity in LPS-induced mouse RAW264.7 cells assessed as reduction in COX2 mRNA expression incubated for 24 hrs by qRT-PCR analysis
Assay type: functional, cell-based
Conditions: RAW264.7, 24 h

SMILES	IC50 [µM]
CC(C)=CCC/C(C)=C/Cc1c(C2CC(=O)c3c(O)cc(O)cc3O2)ccc(O)c1O (stereo unspecified)	11.7
CC(C)=CCC/C(C)=C/Cc1cc(C2CC(=O)c3c(O)cc(O)cc3O2)ccc1O (stereo unspecified)	11.7
CC(C)=CCC/C(C)=C/Cc1cc(C2CC(=O)c3c(O)cc(O)cc3O2)cc(O)c1O (stereo unspecified)	11.7
CC(C)=CCC/C(C)=C/Cc1c(O)cc2c(c1O)C(=O)CC(c1ccc(O)c(O)c1)O2 (stereo unspecified)	11.7

Tested on: Macrophage
Experiment: Anti-inflammatory activity in mouse macrophages extracted from abdominal activity assessed as inhibition of LPS-induced nitric oxide production
Assay type: functional, cell-based
Conditions: not given

SMILES	IC50 [µM]
COc1cc(-c2coc3cc(O)c(CC=C(C)C)c(O)c3c2=O)c(O)cc1O	6.72
COc1ccc(-c2coc3cc(OC)c(CC=C(C)C)c(OC)c3c2=O)cc1	2.06
COc1cc(-c2coc3cc(O)c(CC=C(C)C)c(O)c3c2=O)c(OC)cc1O [VIRIDIFLORIN]	5.36
COc1c(O)cc2oc(-c3ccc(O)c(O)c3)cc(=O)c2c1O [EUPAFOLIN]	60
COc1ccc(-c2coc3cc(O)c(CC=C(C)C)c(O)c3c2=O)c(O)c1	4.68
COc1cc2occ(-c3ccc(O)cc3)c(=O)c2c(OC)c1CC=C(C)C	2.46

Tested on: BV-2
Experiment: Anti-inflammatory activity in mouse BV-2 cells assessed as inhibition of LPS-induced NO production preincubated with compound for 1 hrs followed by LPS stimulation and measured after 24 hrs by Griess reagent based assay
Assay type: functional, cell-based
Conditions: not given

SMILES	IC50 [µM]
COc1cc(O)c2c(=O)c(OC)c(-c3ccc(O)c(O)c3)oc2c1	4.2
COc1ccc(-c2oc3cc(O)cc(O)c3c(=O)c2OC)cc1O	11.1

Tested on: J774.A1
Experiment: Antiinflammatory activity in LPS-induced mouse J774.A1 macrophage cells assessed as reduction in LPS-induced IL-1 beta level
Assay type: functional, cell-based
Conditions: not given

SMILES	IC50 [µM]
COc1cc2oc(-c3ccccc3)cc(=O)c2c(O)c1O	6.4
COc1c2c(cc3oc(-c4ccccc4)cc(=O)c13)OCO2	6.4
COc1cc2oc(-c3ccccc3)cc(=O)c2c(O)c1OC [MOSLOFLAVONE]	6.4

Tested on: Neutrophil
Experiment: Inhibition of fMLF/CB-induced human Neutrophil activation assessed as reduction in elastase release
Assay type: functional, cell-based
Conditions: not given

SMILES	IC50 [µM]
Cc1cc2oc(-c3ccc(O)c(O)c3)cc(=O)c2c2c1C[C@@]1(C)C(C)(C)CCC[C@@]1(C)O2	3.8
CC1(C)CCC[C@@]2(C)Oc3c(ccc4oc(-c5ccc(O)c(O)c5)cc(=O)c34)C[C@@]12C	1.9
c1ccc2c(c1)[I+]c1ccccc1-2 [DIPHENYLENEIODONIUM]	1
O=C1C[C@@H](c2ccc(O)cc2)Oc2cc(O)cc(O)c21 [NARINGENIN]	5.3

Tested on: RAW264.7
Experiment: Anti-inflammatory activity in LPS-stimulated mouse RAW264.7 cells assessed as inhibition of NO production incubated for 24 hrs by Griess reagent based assay
Assay type: functional, cell-based
Conditions: RAW264.7, 24 h

SMILES	IC50 [µM]
COc1cc(O)c2c(=O)cc(-c3ccc(O)cc3)oc2c1 [GENKWANIN]	5.64

Tested on: Neutrophil
Experiment: Inhibition of fMLF/CB-induced human Neutrophil activation assessed as reduction in superoxide anion
Assay type: functional, cell-based
Conditions: not given

SMILES	IC50 [µM]
Cc1cc2oc(-c3ccc(O)c(O)c3)cc(=O)c2c2c1C[C@@]1(C)C(C)(C)CCC[C@@]1(C)O2	5.8
CC1(C)CCC[C@@]2(C)Oc3c(ccc4oc(-c5ccc(O)c(O)c5)cc(=O)c34)C[C@@]12C	2.2
O=S(=O)(F)Cc1ccccc1 [PHENYLMETHYLSULFONYLFLUORIDE]	95
O=C1C[C@@H](c2ccc(O)cc2)Oc2cc(O)cc(O)c21 [NARINGENIN]	3.3

Tested on: BV-2
Experiment: Anti-inflammatory activity in mouse BV-2 cells assessed as reduction in LPS-induced NO production pretreated for 1 hr followed by LPS-stimulation and measured after 18 hrs by 2,3-diaminonaphthalene reagent based fluorescence analysis
Assay type: functional, cell-based
Conditions: not given

SMILES	IC50 [µM]
Oc1ccc2c(c1)OC[C@H](c1cc3c(cc1O)OCO3)[C@H]2O	40.1
COc1ccc(-c2cc3cc(O)c(O)cc3oc2=O)c(OC)c1OC	28.3
COc1c(O)ccc2c1OC[C@H](c1cc3c(cc1O)OCO3)[C@H]2O	46.3

Tested on: BV-2
Experiment: Antiinflammatory activity against mouse BV-2 cells assessed as reduction in LPS induced NO production measured for 24 hrs by Griess reagent based analysis
Assay type: functional, cell-based
Conditions: BV-2, 24 h

SMILES	IC50 [µM]
Oc1cc(O)c2c(c1)O[C@H](c1cc(O)c(O)c(O)c1)[C@@H](O)C2 [GALLOCATECHIN]	30.3
Oc1cc(O)c2c(c1)O[C@H](c1ccc(O)c(O)c1)[C@@H](O)C2 [CIANIDANOL]	26.1

Tested on: THP-1
Experiment: Anti-inflammatory activity in LPS-stimulated human THP-1 cells assessed as reduction of TNFalpha measured for 12 hrs by ELISA method
Assay type: functional, cell-based
Conditions: THP-1, 12 h

SMILES	IC50 [µM]
COc1ccc2oc(-c3ccc(OC)c(OC)c3)cc(=O)c2c1	2.4
COc1c(OC)c(O)c2c(=O)cc(-c3ccc(O)c(O)c3)oc2c1OC [SIDERITIFLAVONE]	12.4
COc1c(OC)c(O)c2c(=O)cc(-c3ccc(O)cc3)oc2c1OC [XANTHOMICROL]	8.1

Tested on: Mus musculus
Experiment: Antiinflammatory activity against TPA-induced CD-1 mouse ear edema model assessed as reduction in ear edema at 0.25 mg/kg relative to control
Assay type: functional
Parameters: scale not given: the % may be the effect or the level left
Conditions: not given

SMILES	Activity [%]
O=C1C[C@@H](c2ccc(O)cc2)Oc2cc(O)cc(O)c21 [NARINGENIN]	42

Tested on: J774.A1
Experiment: Anti-inflammatory activity in mouse J774.A1 macrophage cells assessed as reduction in LPS-induced TNF-alpha production
Assay type: functional, cell-based
Conditions: not given

SMILES	IC50 [µM]
COc1cc2oc(-c3ccccc3)cc(=O)c2c(O)c1O	0.22
COc1c2c(cc3oc(-c4ccccc4)cc(=O)c13)OCO2	0.22
COc1cc2oc(-c3ccccc3)cc(=O)c2c(O)c1OC [MOSLOFLAVONE]	0.22
